Tested on: hypertrophic scar formation
Test: Hypertrophic scar model in rabbit ear, 7-mm wounds, scar elevation index
Type: in vivo, rabbit (New Zealand White)
Text: Using a well-established hypertrophic scar model in rabbit ear (Brown et al. (2008) Plast. Reconstr. Surg. 121:1165-1172; Kim et al. (2003) Wound Repair Regen. 11:368-372; Kryger et al. (2007) J Am. Coll. Surg. 205:78-88; Lu et al. (2005) J Am. Coll. Surg. 201:391-397; Morris et al. (2007) Plast. Reconstr. Surg. 100:674-681; Reid et al. (2006) Wound Repair Regen. 14:138-141; Reid et al. (2007) J Plast. Reconstr. Aesthet. Surg. 60:64-72; Saulis et al. (2002) Plast. Reconstr. Surg. 110:177-183; each herein incorporated by reference in its entirety), the effects of local administration of statins (e.g., Simvastatin, Lovastatin, Prevastatin) were investigated in experiments conducted during the course of developing some embodiments of the present technology. […] The effectiveness of statin administration on inhibition of hypertrophic scar formation was assessed by histological determination of scar elevation index (FIG. 1). The scar elevation index is determined by the ratio of total wound area tissue height to the area of normal tissue below the hypertrophic scar. […]
Whereas the dosages in terms of μMol were equivalent for all 3 statins, the μg dosage levels for Lovastatin and Prevastatin were double those used for Simvastatin. Scar Elevation Index was determined for 28 rabbits, as indicated: […]

Question: What does the source list for `CC[C@H](C)C(=O)O[C@H]1C[C@@H](C)C=C2C=C[C@H](C)[C@H](CC[C@@H]3C[C@@H](O)CC(=O)O3)[C@H]21` [Lovastatin]?
Answer: hypertrophic scar formation (40 μM per wound, local injection): inhibit hypertrophic scar formation; scar elevation index (SEI) (lowest level of drug administered (40 μM per wound), injections on days 15, 20, 25, harvest on day 35, versus vehicle): significantly lower SEI

— patent publication US20210038564A1, “METHODS FOR SCAR PREVENTION” (Northwestern University, priority 2009, published 2021)
